Data on 3 compounds can be found in patent US20190010547A1 (Medizinische Universität Innsbruck, priority 2015, published 2019).

Entries after “also recorded” stand apart in the source; their conditions may differ.

The subject of experiment [1] is miR-122. In words: AntagomiR treatment of mice: liver miR-122 by Northern blotting and quantitative PCR. Type of experiment: in vivo. Conditions: mouse liver. How it is done:
(§1) Liver and serum samples were harvested for analysis.
MiRNA expression was assessed by Northern blot analysis as previously described (Suárez, Circ Res 2007, 100: 1164-73). Briefly, total RNA (5 μg) was separated on a 15% acrylamide TBE 8M urea gel and blotted onto a Hybond N+ nylon filter (Amersham Biosciences). […] ATP and […] polynucleotide kinase (New England Biolabs) to generate high-specific activity probes. Hybridization was carried out according to the ExpressHyb (Clontech) protocol. Following overnight membrane hybridization with specific radiolabeled probes, membranes were washed once for 30 min at 42° C. in 4×SSC/0:5% SDS and subjected to autoradiography. Blots were re-probed for 5S rRNA to control for equal loading: 5′-[…]-3′
Total RNA was isolated from liver and hepatocyte samples using TRIzol reagent (Invitrogen) according to the manufacturer's protocol. For mRNA quantification, cDNA was synthesized using iScript RT Supermix (Bio-Rad), following the manufacturer's protocol. qRT-PCR analysis was performed in triplicate using iQ SYBR green Supermix (BioRad) on an iCycler Real-Time Detection System (Eppendorf). […] For miRNA quantification, total RNA was reverse transcribed using the miScript II RT Kit (Qiagen). […] 1 μg of total RNA was reverse transcribed and gene/miRNA expression assessed as above.

In experiment [2] the test system is miR-33. In words: AntagomiR treatment of mice: hepatic miR-33 expression. Type of experiment: in vivo. To be noted: mouse liver, antagomiR-122 vs control antagomiRs, 65 mg/kg i.p. x3 days, day 7. How it is done:
as §1
(§2) Total RNA was isolated from liver and hepatocyte samples using TRIzol reagent (Invitrogen) according to the manufacturer's protocol. For mRNA quantification, cDNA was synthesized using iScript RT Supermix (Bio-Rad), following the manufacturer's protocol. qRT-PCR analysis was performed in triplicate using iQ SYBR green Supermix (BioRad) on an iCycler Real-Time Detection System (Eppendorf). The mRNA level was normalized to GAPDH or 18S as a house keeping gene (see primer sequence in Table 2). For miRNA quantification, total RNA was reverse transcribed using the miScript II RT Kit (Qiagen). […] For mouse tissues, total liver RNA from WT mice fed a HFD were isolated using the Bullet Blender Homogenizer (Next Advance) in TRIzol. 1 μg of total RNA was reverse transcribed and gene/miRNA expression assessed as above.

Experiment [3] can be described thus: AntagomiR treatment of mice: serum cholesterol. Type of experiment: in vivo. To be noted: antagomiR-122 vs control antagomiRs, 65 mg/kg i.p. x3 days, day 7. How it is done:
as §1
Blood samples were collected by retro-orbital venous plexus puncture after a 12 h overnight fast for lipid analysis. Plasma was separated by centrifugation and stored at 4° C. Total and HDL cholesterol in each sample was enzymatically measured using the T-Cholesterol and HDL-C Assay Kits (Wako Diagnostics).

Experiment [4] deals with genes implicated in cholesterol and lipid metabolism (ACC1, CTP1, FAS, SCD1, MTTP, SREBP1). Kind of experiment: AntagomiR treatment of mice: liver expression of genes implicated in cholesterol and lipid metabolism (qRT-PCR). Conditions: mouse liver mRNA, antagomiR-122 65 mg/kg i.p. x3 days, day 7. Type of experiment: in vivo. How it is done: as §1, §2
In general terms: In qPCR the cycle at which signal appears reflects the starting amount.

Experiment [5] relates to hepatitis C virus. Conditions: 36 patients with chronic hepatitis C genotype 1 infection, Phase 2a (Janssen, N Engl J Med 2013); cited from earlier work.
For experiment [6] the following is noted: ASCOT participants, atorvastatin 10 mg/day vs placebo, baseline vs 1 year.
Experiment [7] relates to serum miR-122. To be noted: ASCOT participants (n=155), atorvastatin 10 mg/day vs placebo, baseline vs 1 year.
The subject of experiment [8] is serum miR-122. In words: Statin treatment of mice: serum miR-122. To be noted: C57BI/6 mice, 20 mg/kg atorvastatin intraperitoneally once a day for five days.

Take “C*A*AACACCAUUGUCACACU*C*C*A*Chol*-T [antagomiR-122]”: the “liver miR-122 expression” value in experiment [1] (Northern blotting / qPCR, 65 mg/kg i.p. on three consecutive days, day 7, n=5 per group, 65 mg/kg) is given as “almost complete inhibition of miR-122 expression; also recorded: reduction of liver miR-122”. Moreover, in experiment [1] (quantitative PCR, 65 mg/kg intraperitoneally on three consecutive days, sacrificed at day 7, vs control antagomiRs, mean (standard deviation)), the “relative amount of miR-122 in antagomiR-122 group” value came out at 0.13%+/−0.06%. The “hepatic expression of miR-33” value in experiment [2] is listed as “attenuated; also recorded: reduction of miR-33”. Besides, the serum cholesterol concentration result in experiment [3] is “lower cholesterol levels; also recorded: reduction in serum cholesterol concentration”. Also, the “expression of genes implicated in lipid metabolism (de novo lipogenesis and lipoprotein assembly)” value in experiment [4] is reported as “down-regulation of enzymes implicated in lipid metabolism”.
Turning to miravirsen, the “hepatitis C virus RNA levels” value in experiment [5] was “reduced hepatitis C virus RNA levels in a dose-dependent manner”.
In the case of `CC(C)c1c(C(=O)Nc2ccccc2)c(-c2ccccc2)c(-c2ccc(F)cc2)n1CC[C@@H](O)C[C@@H](O)CC(=O)O` [atorvastatin], in experiment [6], the total cholesterol result is “concordant reduction”. Besides, in experiment [7], the “serum miR-122 levels” value is recorded as “reduced circulating miR-122 levels; also recorded: concordant reduction”. For the same compound, the “serum miR-122” value in experiment [8] is “reduction of miR-122; also recorded: reduced serum miR-122”.
